Reference: patent publication US20260097073A1, “PROCESS FOR THE PREPARATION OF TUNGSTEN (VI) SALT HYDRATES” (OXOLIFE, S.L., priority 2022, published 2026)

How the values were obtained:
[1] = Stability test: loss on drying with time; format: physicochemical
Text: The present inventors confirmed the stability of the hydrate resulting from the process of the invention determining the loss on drying with time.
To that end a well-mixed sample of the sodium tungstate hydrate resulting from Example 2, was subjected to the following protocol. Dry clean glass-stopper, shallow weighing bottle under the same conditions to be employed in the determination. Cool to room temperature in a desiccator and take the weight accurately (W1) g. Transfer to the bottle 1 g of the sample, cover it and accurately weigh the bottle and the contents (W2) g. Place the loaded bottle in the drying chamber (oven), remove the stopper and leave it also in the chamber. Dry the sample to the specified time and temperature to a constant mass (105° C.). After drying is completed, open the drying chamber, close the bottle promptly and allow it to cool to room temperature (where applicable) in a desiccator before weighing. Weigh the bottle and the contents (W3) g. Calculation:
The loss on drying should be not more than 15% (w/w).

[2] = Drying of the hydrate salt: loss of the water molecules (IR); format: physicochemical
Experimental: In this case, the precipitation was performed by adding 2.0 volumes of either MeOH, EtOH, acetone or IPA at room temperature. After overnight stirring at room temperature, the suspensions were filtered at room temperature, and the cakes were washed by percolation with 0.4 volumes of H2O/solvent (1:1), and with 0.4 volumes of the corresponding solvent. […]
This phenomenon was observed when recording the IR spectra of the synthesized and dried products, as none of them show the stretching and bending bands typical of water molecules (FIG. 2).

SMILES: O.O.[Na+].[Na+].[O]=[W](=[O])([O-])[O-] [Na2WO4·2H2O, sodium tungstate dihydrate]
- loss on drying with time ([1]; 6-month 40° C./75% HR): the loss was maintained
- loss on drying with time ([1]; 18-month test at 25° C./60% HR): the loss was maintained
- loss on drying ([1]; sodium tungstate hydrate resulting from Example 2, dried at 105° C. to constant mass, limit not more than 15% (w/w)): below 15%
- stability of the waters of hydration on drying ([2]; drying processes at 100-110° C., IR spectra): dehydration processes of the tungsten salt were detected
- fraction of the starting salt that lost the molecules of water ([2]; vacuum dried at a mild temperature of about 50° C.): ~94%
